Measured values reported in ChEMBL document CHEMBL1201862, “PubChem BioAssay data set” (2004).
Activity calls are given as the source filed them.

Columns and labels:
[1] = test system: Vero; experiment: viability loss in Vero cells – cell-based, plate reader, cherry-pick samples, cytotoxicity control, dose response (AID 687020); type: functional; conditions: Chlorocebus sabaeus
[2] = test system: A549; experiment: viability loss in A549 cells – cell-based, plate reader, cherry-pick samples, cytotoxicity control, dose response (AID 687028); type: functional; conditions: Homo sapiens
[3] = Vibrio cholerae quorum sensing activators (AID 686977); type: functional
[4] = cells; type: functional, cell-based
[5] = Trypanosoma cruzi growth suppression in host cells – NIH3T3 host cells, beta-gal luminescence, confirmation (AID 2044); type: functional, cell-based;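 note: intracellular parasites grown in NIH/3T3 mouse fibroblasts as host cells; luminescent beta-galactosidase reporter signal from transgenic T. cruzi replicating inside host cells; inhibitors lower the luminescence signal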
[6] = cells; type: functional, cell-based; remark: listed apart in the source
[7] = NIH3T3 cell viability loss – ATP luminescence, mouse fibroblasts, counter-screen, dose response (AID 2010); type: functional, cell-based;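 note: cells exposed to compound for about 90 hours before reading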
[8] = THP-1 cell cytotoxicity, dose response, cytotoxicity control for non-replicating M. tuberculosis project (AID 489025); type: functional
[9] = HepG2 cell cytotoxicity, dose response, cytotoxicity control for non-replicating M. tuberculosis project (AID 489018); type: functional; conditions: Mycobacterium tuberculosis
[10] = Vero E6 cell cytotoxicity, dose response, cytotoxicity control for non-replicating M. tuberculosis project, secondary assay (AID 492998); type: functional, VeroE6; conditions: Vero C1008
[11] = target: Albumin (Bos taurus, UniProt P02769); experiment: Counterscreen for inhibitors of T-cell receptor (TCR)-CD3 interaction: Fluorescence-based biochemical high throughput dose response assay to identify inhibitors of T-cell receptor (TCR)-CD3 interaction using a TAMRA-labeled BSA probe.; type: functional
[12] = target: Paired box protein Pax-8 (Homo sapiens, UniProt Q06710); experiment: PAX8 transcriptional activity inhibition in RMG-I – RMG-I cells, luciferase, cherry-pick, dose response (AID 687027); type: functional, cell-based;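 note: luciferase reporter driven by Pax8 target thyroperoxidase promoter measured by SteadyGlo luminescence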
[13] = OVCAR-3 cell viability loss – plate reader, dry powder samples, PAX8 inhibitor project, dose response (AID 743044); type: functional, cell-based
[14] = A549 cell cytotoxicity, dose response, cytotoxicity control, plate reader, cherry-pick, antagonist series (AID 743412); type: functional, cell-based
[15] = toxicity toward HepG2 liver cells – cell-based, plate reader, cherry-pick, antagonist series, cytotoxicity control, dose response (AID 743416); type: functional
[16] = IGROV1 cell killing – plate reader, dry powder samples, PAX8 inhibitor project, dose response (AID 743043); type: functional, cell-based; conditions: IGROV-1
[17] = blockers of bursicon-stimulated LGR2 cAMP reporter – cell-based, HEK293, CRE-luciferase reporter, cherry pick, set 2, dose response (AID 743343); type: functional;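 note: transfected cells were stimulated with diluted bursicon conditioned medium after compound addition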
[18] = blockade of melanocortin 4 receptor signaling – cell-based, plate reader, cherry pick, counter-screen for LGR2 antagonist project, dose response (AID 743444); type: functional;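 note: transfected HEK 293 cells stimulated with alpha-MSH peptide; potency of inhibitors of the alpha-MSH evoked signal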
[19] = OVCAR8 cell viability loss – plate reader, dry powder samples, PAX8 project, dose response (AID 743197); type: functional, cell-based; conditions: OVCAR-8
[20] = viability loss in HEK293 cells – cell-based, plate reader, cherry-picked samples, cytotoxicity control, dose response (AID 743446); type: functional
[21] = target: Fructose-bisphosphate aldolase (Mycobacterium tuberculosis, UniProt P9WQA3); experiment: Fluorescence-based biochemical high throughput dose response assay for inhibitors of the fructose-bisphosphate aldolase (FBA) of M. tuberculosis.; type: functional
[22] = general mammalian cell viability loss – inhibitor set, cherry-pick, set 2, cytotoxicity control for miR-122 modulator project, dose response (AID 720697); type: functional, cell-based
[23] = cytotoxicity in HEK293 background cells – cell-based, dry powder, set 2, counter-screen for EBV LMP1 inhibitor project, dose response (AID 624374); type: functional
[24] = inhibitors of EBV LMP1 NF-kappaB signaling – cell-based, luciferase reporter, luminescence, dry powder, set 2, dose response (AID 624376); type: functional
[25] = target: Induced myeloid leukemia cell differentiation protein Mcl-1 (Homo sapiens, UniProt Q07820); type: functional
[26] = target: T1, Mannose-6-phosphate isomerase (Homo sapiens, UniProt P34949); experiment: MPI inhibition at elevated mannose 6-phosphate – biochemical, fluorescence intensity, high mannose 6-phosphate, primary screen (AID 1220)
T1 sequence (P34949 whole entry): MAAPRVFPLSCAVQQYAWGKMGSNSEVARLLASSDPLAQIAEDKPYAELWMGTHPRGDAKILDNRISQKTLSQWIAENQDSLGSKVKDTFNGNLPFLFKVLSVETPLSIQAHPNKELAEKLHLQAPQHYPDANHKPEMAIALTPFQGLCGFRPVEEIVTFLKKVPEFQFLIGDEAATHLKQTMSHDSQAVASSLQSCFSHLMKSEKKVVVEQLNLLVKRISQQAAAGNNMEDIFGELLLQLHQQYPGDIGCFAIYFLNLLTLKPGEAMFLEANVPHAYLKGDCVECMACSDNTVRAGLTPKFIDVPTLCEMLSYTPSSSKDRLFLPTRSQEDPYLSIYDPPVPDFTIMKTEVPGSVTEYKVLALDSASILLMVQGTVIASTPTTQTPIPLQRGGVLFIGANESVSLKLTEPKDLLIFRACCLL

[27] = target: T2, Replicative DNA helicase DnaB (Mycobacterium tuberculosis, UniProt P9WMR3); experiment: DnaB intein splicing inhibitors, dose response, biochemical, cell-free fluorescence (AID 449749); type: functional
T2 sequence (P9WMR3 whole entry): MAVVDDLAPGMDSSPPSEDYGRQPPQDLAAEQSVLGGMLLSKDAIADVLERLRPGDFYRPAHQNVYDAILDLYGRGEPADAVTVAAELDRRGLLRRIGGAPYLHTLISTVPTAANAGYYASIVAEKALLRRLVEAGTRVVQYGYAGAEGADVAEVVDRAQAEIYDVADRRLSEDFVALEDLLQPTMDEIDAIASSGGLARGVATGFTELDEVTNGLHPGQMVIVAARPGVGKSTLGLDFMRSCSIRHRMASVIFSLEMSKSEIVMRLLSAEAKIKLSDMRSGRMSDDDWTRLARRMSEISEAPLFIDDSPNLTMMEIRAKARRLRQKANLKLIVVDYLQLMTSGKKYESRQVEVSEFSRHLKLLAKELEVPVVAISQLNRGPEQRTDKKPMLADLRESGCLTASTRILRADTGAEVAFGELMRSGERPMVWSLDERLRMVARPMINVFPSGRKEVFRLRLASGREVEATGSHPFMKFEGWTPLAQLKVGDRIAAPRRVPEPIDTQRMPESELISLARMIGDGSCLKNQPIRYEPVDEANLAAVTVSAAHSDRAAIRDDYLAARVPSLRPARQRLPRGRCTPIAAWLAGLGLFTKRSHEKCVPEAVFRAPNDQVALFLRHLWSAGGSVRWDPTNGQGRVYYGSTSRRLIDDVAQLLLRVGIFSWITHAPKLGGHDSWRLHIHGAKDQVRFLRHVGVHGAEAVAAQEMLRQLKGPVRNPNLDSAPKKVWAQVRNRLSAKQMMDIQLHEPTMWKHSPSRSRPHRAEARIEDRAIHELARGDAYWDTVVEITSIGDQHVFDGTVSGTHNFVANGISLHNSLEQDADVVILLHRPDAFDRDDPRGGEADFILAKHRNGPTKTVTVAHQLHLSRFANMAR

[28] = target: T3, Protein RecA (Mycobacterium tuberculosis, UniProt P9WHJ3); experiment: Fluorescence Cell-Free Homogeneous Dose Retest to Identify Inhibitors of RecA-Intein Splicing Activity. [Related pubchem assays (depositor defined):AID2097, AID2223, AID489010, AID492950]; type: functional
T3 sequence (P9WHJ3 whole entry): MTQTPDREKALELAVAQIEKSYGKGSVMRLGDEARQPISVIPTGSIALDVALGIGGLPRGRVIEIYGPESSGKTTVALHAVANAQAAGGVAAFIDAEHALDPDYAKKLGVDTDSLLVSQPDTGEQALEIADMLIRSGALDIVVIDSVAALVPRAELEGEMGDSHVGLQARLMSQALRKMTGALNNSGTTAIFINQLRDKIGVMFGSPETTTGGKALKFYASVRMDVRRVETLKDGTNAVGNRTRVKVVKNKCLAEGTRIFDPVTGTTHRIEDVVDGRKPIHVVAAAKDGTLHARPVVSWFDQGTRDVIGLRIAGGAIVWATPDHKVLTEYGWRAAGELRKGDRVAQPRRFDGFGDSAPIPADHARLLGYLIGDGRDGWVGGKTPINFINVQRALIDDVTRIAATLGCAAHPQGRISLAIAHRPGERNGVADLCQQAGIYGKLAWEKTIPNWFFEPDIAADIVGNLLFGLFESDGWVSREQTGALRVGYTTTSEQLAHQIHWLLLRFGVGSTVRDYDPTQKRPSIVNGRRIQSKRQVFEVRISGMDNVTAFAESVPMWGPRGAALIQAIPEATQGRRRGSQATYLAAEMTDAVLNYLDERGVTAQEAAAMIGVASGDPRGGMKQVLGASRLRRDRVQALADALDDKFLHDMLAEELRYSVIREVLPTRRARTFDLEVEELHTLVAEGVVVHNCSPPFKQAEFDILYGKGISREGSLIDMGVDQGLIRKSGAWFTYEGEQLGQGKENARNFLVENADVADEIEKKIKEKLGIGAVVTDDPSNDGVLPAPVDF

[29] = target: Genome polyprotein (dengue virus type 2, UniProt P29990); experiment: flavivirus cap methylation enzyme inhibition – biochemical, confirmation dose response, primary screen (AID 588689); type: functional
[30] = target: T4, Sentrin-specific protease 8 (Homo sapiens, UniProt Q96LD8); type: functional
T4 sequence (Q96LD8 whole entry): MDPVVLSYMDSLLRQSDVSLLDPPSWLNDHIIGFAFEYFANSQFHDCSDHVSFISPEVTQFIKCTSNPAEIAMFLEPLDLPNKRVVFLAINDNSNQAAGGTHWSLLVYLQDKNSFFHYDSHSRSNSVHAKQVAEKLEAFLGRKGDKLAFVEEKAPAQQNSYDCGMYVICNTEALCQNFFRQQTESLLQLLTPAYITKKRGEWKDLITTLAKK

[31] = target: T4, Sentrin-specific protease 8; type: functional; remark: listed apart in the source
[32] = target: T5, Caspase-3 (Homo sapiens, UniProt P42574); experiment: Dose-response confirmation of uHTS inhibitor hits of Sentrin-Specific Protease 8 in a Caspase-3 Fluorescence assay.; type: functional
T5 sequence (P42574 whole entry): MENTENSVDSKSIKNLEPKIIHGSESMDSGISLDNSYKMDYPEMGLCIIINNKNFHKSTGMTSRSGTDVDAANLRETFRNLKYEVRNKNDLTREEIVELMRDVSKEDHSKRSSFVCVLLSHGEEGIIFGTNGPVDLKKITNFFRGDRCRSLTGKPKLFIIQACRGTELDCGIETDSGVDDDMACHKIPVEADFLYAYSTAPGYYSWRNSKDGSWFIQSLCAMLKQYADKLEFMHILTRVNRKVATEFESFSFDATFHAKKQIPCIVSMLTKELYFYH

[33] = Luminescence Cell-Based Dose Retest to Confirm Inhibitors of Cancer Stem Cells. [Related pubchem assays (depositor defined):AID2717, AID2721]; type: functional; conditions: Homo sapiens
[34] = test system: H9c2; experiment: cells; type: functional, cell-based; conditions: Rattus norvegicus, H9c2, Myocardium;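 note: confirmatory concentration-response retest of ultra-high-throughput screening hits for modulation of myocardial damage; cell death induced by hydrogen peroxide oxidative stress; compound pretreatment for 60 min then peroxide exposure for 2 h; potency is for protecting the cells against peroxide damage rather than for killing them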
[35] = ATP-based viability loss in HEK293T cells – cell-based, CellTiter-Glo luminescence, cherry-picked samples, set 4, cytotoxicity control, dose response (AID 743441); type: functional; conditions: HEK293
[36] = test system: Cryptococcus neoformans; experiment: PubChem AID 686997; type: functional, organism-based; conditions: Cryptococcus neoformans
[37] = test system: Cryptococcus neoformans; experiment: Cryptococcus growth inhibition by alamar blue – cell lysis, cherry-picks, replicate tests, mechanism study for C. neoformans antifungal project, dose response (AID 686999); type: functional, organism-based

Chain of Paired box protein Pax-8 (Q06710 whole entry): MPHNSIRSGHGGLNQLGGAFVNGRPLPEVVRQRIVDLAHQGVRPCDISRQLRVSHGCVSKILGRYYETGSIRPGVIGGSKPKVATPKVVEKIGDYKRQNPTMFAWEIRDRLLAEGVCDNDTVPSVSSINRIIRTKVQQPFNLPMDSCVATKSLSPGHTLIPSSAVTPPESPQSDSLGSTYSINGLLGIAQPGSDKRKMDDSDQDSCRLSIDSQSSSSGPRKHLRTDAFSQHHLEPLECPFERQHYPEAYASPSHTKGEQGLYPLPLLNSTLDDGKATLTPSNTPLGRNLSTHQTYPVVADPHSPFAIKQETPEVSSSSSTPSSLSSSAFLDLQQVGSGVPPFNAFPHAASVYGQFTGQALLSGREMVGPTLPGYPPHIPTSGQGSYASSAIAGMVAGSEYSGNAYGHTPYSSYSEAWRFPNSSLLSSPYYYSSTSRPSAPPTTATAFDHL
Chain of Genome polyprotein (P29990 2492-3391 limits assumed): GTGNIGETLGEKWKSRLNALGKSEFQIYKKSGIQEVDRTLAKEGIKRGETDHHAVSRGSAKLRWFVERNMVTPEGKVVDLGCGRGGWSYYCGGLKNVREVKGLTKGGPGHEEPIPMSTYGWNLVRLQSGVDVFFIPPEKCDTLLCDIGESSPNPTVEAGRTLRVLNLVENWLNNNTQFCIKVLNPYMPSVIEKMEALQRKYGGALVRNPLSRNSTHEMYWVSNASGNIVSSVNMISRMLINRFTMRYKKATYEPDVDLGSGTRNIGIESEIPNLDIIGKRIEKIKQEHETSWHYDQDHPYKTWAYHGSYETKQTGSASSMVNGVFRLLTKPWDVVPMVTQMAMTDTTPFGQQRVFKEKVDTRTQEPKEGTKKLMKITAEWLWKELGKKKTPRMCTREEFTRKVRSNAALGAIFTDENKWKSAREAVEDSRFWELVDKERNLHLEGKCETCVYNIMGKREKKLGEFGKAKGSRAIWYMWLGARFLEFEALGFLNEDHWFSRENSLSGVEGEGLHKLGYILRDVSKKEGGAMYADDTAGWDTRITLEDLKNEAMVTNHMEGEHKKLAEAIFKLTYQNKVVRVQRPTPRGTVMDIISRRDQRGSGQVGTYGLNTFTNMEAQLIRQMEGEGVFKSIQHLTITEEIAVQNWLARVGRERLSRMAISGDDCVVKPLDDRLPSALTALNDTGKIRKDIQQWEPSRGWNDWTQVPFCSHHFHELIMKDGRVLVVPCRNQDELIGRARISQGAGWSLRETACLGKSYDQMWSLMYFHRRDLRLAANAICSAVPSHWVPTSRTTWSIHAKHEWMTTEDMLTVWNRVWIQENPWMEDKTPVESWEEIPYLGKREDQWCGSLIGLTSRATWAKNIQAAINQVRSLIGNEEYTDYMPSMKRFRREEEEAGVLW
Chain of Albumin (P02769 whole entry): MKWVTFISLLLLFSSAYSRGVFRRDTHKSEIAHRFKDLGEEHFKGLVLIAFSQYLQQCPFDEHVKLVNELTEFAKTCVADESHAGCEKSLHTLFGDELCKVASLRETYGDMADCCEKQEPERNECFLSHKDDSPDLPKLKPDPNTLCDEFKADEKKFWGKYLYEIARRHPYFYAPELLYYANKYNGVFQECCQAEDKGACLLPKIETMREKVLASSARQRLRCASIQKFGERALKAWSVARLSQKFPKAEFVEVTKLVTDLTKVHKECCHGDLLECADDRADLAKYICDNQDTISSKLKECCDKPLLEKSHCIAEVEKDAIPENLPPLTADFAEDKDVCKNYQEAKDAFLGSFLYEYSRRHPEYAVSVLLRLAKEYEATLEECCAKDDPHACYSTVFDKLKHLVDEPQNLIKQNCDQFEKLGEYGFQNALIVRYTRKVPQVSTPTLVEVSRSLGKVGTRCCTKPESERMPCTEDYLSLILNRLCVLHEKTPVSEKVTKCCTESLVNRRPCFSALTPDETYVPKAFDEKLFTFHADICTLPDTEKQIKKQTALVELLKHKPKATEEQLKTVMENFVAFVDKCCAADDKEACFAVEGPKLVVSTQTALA
Chain of Induced myeloid leukemia cell differentiation protein Mcl-1 (Q07820 whole entry): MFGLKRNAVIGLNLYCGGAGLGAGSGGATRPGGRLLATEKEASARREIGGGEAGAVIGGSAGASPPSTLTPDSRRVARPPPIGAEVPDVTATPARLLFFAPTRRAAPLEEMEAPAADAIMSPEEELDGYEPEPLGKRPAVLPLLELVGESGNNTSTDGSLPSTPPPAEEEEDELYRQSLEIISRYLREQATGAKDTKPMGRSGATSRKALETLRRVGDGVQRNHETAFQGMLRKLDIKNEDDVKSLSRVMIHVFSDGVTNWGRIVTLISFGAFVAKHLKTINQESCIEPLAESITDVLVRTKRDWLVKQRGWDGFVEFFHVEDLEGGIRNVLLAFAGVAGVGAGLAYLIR
Chain of Fructose-bisphosphate aldolase (P9WQA3 whole entry): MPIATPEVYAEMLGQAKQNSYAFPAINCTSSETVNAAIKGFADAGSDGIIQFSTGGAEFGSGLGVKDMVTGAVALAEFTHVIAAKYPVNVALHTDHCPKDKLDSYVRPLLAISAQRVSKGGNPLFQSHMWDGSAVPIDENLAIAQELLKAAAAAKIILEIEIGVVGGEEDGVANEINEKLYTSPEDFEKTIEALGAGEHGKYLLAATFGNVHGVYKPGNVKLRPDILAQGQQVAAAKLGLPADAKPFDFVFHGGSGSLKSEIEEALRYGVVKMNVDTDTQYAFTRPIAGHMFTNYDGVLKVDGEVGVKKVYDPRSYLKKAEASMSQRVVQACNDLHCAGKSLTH

For `COc1ccc(S(=O)(=O)N(CC(C)C)CC(C)C)c2cccnc12`, the AC50 [1] was 39 µM (active) and the AC50 [2] was 19.5 µM (active).
For `O=C(Nc1ccc(F)cc1F)c1sccc1SCc1cccc(C(F)(F)F)c1`, the IC50 [3] was 77.9 µM (active).
With `O=C(N/N=C/c1cc(Br)cc(Br)c1O)c1cccc(N2CCCC2=O)c1` the EC50 [4] was 138 µM (active), the EC50 [5] was 1.55 µM (active) and the EC50 [6] was > 350 µM (not active). The EC50 [7] was > 60 µM (not active), the CC50 [8] was 15.2 µM (active) and the CC50 [9] was > 20 µM (active). For the same compound, the CC50 [10] was 15 µM (active) and the IC50 [11] was > 94.1 µM (inactive).
For `COc1cccc(-c2ccc3c(c2)[C@H]2[C@H](CCN2C(=O)c2ccccc2F)[C@H](CO)N3C)c1`, the AC50 [12] was 8.72 µM (active), the AC50 [13] was 22.7 µM (active) and the AC50 [14] was 13.8 µM (active). For the same compound, the AC50 [15] was 24 µM (active), the AC50 [16] was 57.8 µM (active) and the AC50 [17] was 5.53 µM (active). The AC50 [18] was 7.07 µM (active), the AC50 [19] was 25.3 µM (active) and the AC50 [20] was 20.5 µM (active).
For `CC1=CC2=NCC(O)CN2C=C1` (configuration not stated), the IC50 [21] was 5.11 µM (active).
In the case of `O=C1NC(=O)N(CCC2=CCCCC2)C(=O)/C1=C\c1cccs1`, the AC50 [22] is reported as 1.06 µM (active).
`COc1cccc(-c2cccc(-c3nc(C(=O)NCC(F)(F)F)cc4c3[C@H](CCO)N([S@@+]([O-])C(C)(C)C)C4)c2)c1` gave an AbsAC35 [23] of 43.43 µM and an AbsAC35 [24] of 56.19 µM.
With `Nc1scc2c(C(=O)N/N=C/c3ccc(Cl)cc3)nn(-c3ccccc3)c(=O)c12` the IC50 [25] was 1.95 µM (active), the IC50 [26] was > 50 µM (not active) and the AC50 [27] was 7.02 µM (active). For the same compound, the EC50 [28] was 5.71 µM (active), the IC50 [29] was 70.6 µM (active) and the IC50 [30] was 0.5 µM (active). The IC50 [31] was 0.577 µM (active) and the IC50 [32] was 4.47 µM (active).
In the case of `COc1ccc(-n2cc(-c3ccccc3)c3c(N4CCOCC4)ncnc32)cc1`, the AC50 [33] is reported as 3.78 µM (active), the IC50 [34] is reported as > 79 µM (inactive) and the AC50 [35] is reported as 48.5 µM (active).
With `COC(=O)C1=C(C)N(Cc2ccc(Cl)cc2)C(=S)NC1c1ccccc1` (configuration not stated) the AC50 [36] was 25.9 µM (active) and the AC50 [37] was 36.1 µM (active).
